Results as given in patent publication US11696913B2, “Prolonged ectoparasite-controlling agent for animal” (MITSUI CHEMICALS AGRO, INC., priority 2017, dated 2023).
Read-outs that look alike come from different tables or passages of the source.

What was measured:
Dermacentor variabilis [1] = experiment: Systemic treatment in-vivo test with American dog tick nymph on rats; conditions: Dermacentor variabilis, ip, intraperitoneal injection, 10 mg/kg
Description: Systemic Treatment In-Vivo Test with American Dog Tick Nymph and Cat Flea on Rats
Type of study and overall study design: The method is a randomized non-blinded efficacy study in accordance with European animal welfare requirements. Rats (Rattus norvegicus) were randomized based on pre-treatment flea counts. The efficacy of treatment was determined by comparison of the flea and tick counts of different treatment groups versus the placebo-treated control group. The experimental unit was the individual study animal. Method and route of administration: The compound was applied in a suitable solvent and carrier (more specifically, added to glycerol formal; in case of poorly soluble compounds, a solvent mixture with up to 25% by volume of N-methyl pyrrolidone may be used.) considering the individual body weight as an intraperitoneal injection.
(§1) Experimental infestation: On the day of treatment and weekly thereafter, 30 ticks (D. variabilis nymphs) were released onto the back of each rat, and 30 fleas (C. felis) were released onto the back of each rat 24 h later.
(§2) Tick and Flea counting: Rats were thoroughly examined and ticks and fleas were manually removed 48 h (±4 h) after tick infestation and 24 h after flea infestation. Live fleas and live attached engorged ticks were counted. In non-evident cases, engorgement status was evaluated by squeezing the tick on a filter paper to find traces of blood as sign for engorgement.

Laodelphax striatellus = experiment: Insecticidal testing against small brown planthopper; format: in vivo; conditions: 144 h, concentration 100 ppm, sprayed rice seedlings, after 6 days, read-out: pesticidal rate
In short: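 Acetone solution of compound at a set concentration sprayed onto rice seedlings, air-dried, then exposed to 10 planthoppers (one group). Held at 25° C; survival rate recorded after 6 days.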

Ctenocephalides felis [2] = experiment: In vitro contact test with fleas; conditions: read-out: insecticidal activity; for pest or weed control at 0.2 µg/cm2, 0.2 µg/cm2: dose 0.2 μg/cm^2, dead or moribund fleas after 48 h; for pest or weed control at 1 µg/cm2, 1 µg/cm2: dose 1 μg/cm^2, dead or moribund fleas after 48 h; for pest or weed control at 0.04 µg/cm2, 0.04 µg/cm2: dose 0.04 μg/cm^2, dead or moribund fleas after 48 h
In short: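 Activity is the percentage of fleas dead or moribund at 48 h, judged by immobility or uncoordinated movement after tapping. Tubes were coated by evaporating acetone solutions (900 ppm gives 5 μg/cm^2), then held 5-10 adult fleas of both sexes at room temperature and ambient humidity.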

Ixodes ricinus = experiment: In vitro contact test with adult hard ticks (Ixodes ricinus); conditions: read-out: acaricidal activity; for pest or weed control at 5 µg/cm2, 5 µg/cm2: dose 5 μg/cm^2, 48 h
In short: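 Acaricidal activity = % ticks dead or moribund after 48 h contact with acetone-deposited compound on vial walls (e.g., 900 ppm solution → 5 μg/cm^2). Ambient conditions for R. sanguineus, 21° C./85% rel. hum. for other species; heat challenge at 45-50° C. separated climbers from moribund ticks.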

Dermacentor variabilis [3] = experiment: Topical treatment in-vivo test with American dog tick nymph on rats; conditions: topical spot-on, 25 mg/kg
Description: (§3) Topical Treatment In-Vivo Test with American Dog Tick Nymph and Cat Flea on Rats
(§4) Type of study and overall study design: The method is a randomized non-blinded efficacy study in accordance with European animal welfare requirements. Rats (Rattus norvegicus) were randomized based on pre-treatment flea counts. The efficacy of treatment was determined by comparison of the flea and tick counts of different treatment groups versus the placebo-treated control group. The experimental unit was the individual study animal.
(§5) Method and route of administration: The compound was applied in a suitable solvent and carrier (more specifically, added to the following mixture: 33.3% by weight propylene carbonate, […] N-methylpyrrolidone, 0.1% by weight BHA, 0.05% by weight BHT) considering the individual body weight as topical spot-on between the shoulder blades directly onto the skin.
as §1
as §2, with “(+4” for “(±4”

Ctenocephalides felis [4] = experiment: Topical treatment in-vivo test with cat flea on rats; conditions: topical spot-on
Description: as §3, §4, §5, §1
as §2, with “(+4” for “(±4”

[5] = SD 2, read-out: Geometric mean percent reduction in live tick (Dermacentor variabilis) counts compared to untreated control rats
[6] = SD 9, read-out: Geometric mean percent reduction in live tick (Dermacentor variabilis) counts compared to untreated control rats
[7] = SD 16, read-out: Geometric mean percent reduction in live tick (Dermacentor variabilis) counts compared to untreated control rats
[8] = SD 23, read-out: Geometric mean percent reduction in live tick (Dermacentor variabilis) counts compared to untreated control rats
[9] = SD 30, read-out: Geometric mean percent reduction in live tick (Dermacentor variabilis) counts compared to untreated control rats

| SMILES | inhibition in vivo at 10 mg/kg (Dermacentor variabilis [1]; [5]) | inhibition in vivo at 10 mg/kg (Dermacentor variabilis [1]; [6]) | inhibition in vivo at 10 mg/kg (Dermacentor variabilis [1]; [7]) | inhibition in vivo at 10 mg/kg (Dermacentor variabilis [1]; [8]) | inhibition in vivo at 10 mg/kg (Dermacentor variabilis [1]; [9]) | pest or weed control at 100 ppm (Laodelphax striatellus) | pest or weed control at 0.2 µg/cm2, 0.2 µg/cm2 (Ctenocephalides felis [2]) | pest or weed control at 1 µg/cm2, 1 µg/cm2 (Ctenocephalides felis [2]) | pest or weed control at 5 µg/cm2, 5 µg/cm2 (Ixodes ricinus) | pest or weed control at 0.04 µg/cm2, 0.04 µg/cm2 (Ctenocephalides felis [2]) | further results |
| --- | --- | --- | --- | --- | --- | --- | --- | --- | --- | --- | --- |
| CN(C(=O)c1ccc(C(F)(F)F)nc1)c1cccc(C(=O)Nc2c(I)cc(C(F)(C(F)(F)F)C(F)(F)F)cc2C(F)(F)F)c1F [Compound 66, N-(2-fluoro-3-((2-iodo-4-(perfluoropropan-2-yl)-6-(trifluoromethyl)phenyl)carbamoyl)phenyl)-N-methyl-6-(trifluoromethyl)nicotinamide] | 100% | 100% | 100% | 100% | 95% | ≥ 70% | 95% | 95% | – | – | – |
| CN(C(=O)c1ccc(F)nc1)c1cccc(C(=O)Nc2c(I)cc(C(F)(C(F)(F)F)C(F)(F)F)cc2C(F)(F)F)c1F [Compound 115, 6-fluoro-N-(2-fluoro-3-((2-iodo-4-(perfluoropropan-2-yl)-6-(trifluoromethyl)phenyl)carbamoyl)phenyl)-N-methylnicotinamide] | 100% | 99% | 86% | 46% | 17% | ≥ 70% | 95% | 95% | 90% | 95% | – |
| CN(C(=O)c1ccc(F)c(F)c1)c1cccc(C(=O)Nc2c(I)cc(C(F)(C(F)(F)F)C(F)(F)F)cc2C(F)(F)F)c1F [Compound 51] | – | – | – | – | – | ≥ 70% | 95% | 95% | – | 95% | Geometric mean percent reduction in live tick (Dermacentor variabilis) counts compared to untreated control rats (Dermacentor variabilis [3]; SD 2): 82%; Geometric mean percent reduction in live tick (Dermacentor variabilis) counts compared to untreated control rats (Dermacentor variabilis [3]; SD 9): 95%; Geometric mean percent reduction in live tick (Dermacentor variabilis) counts compared to untreated control rats (Dermacentor variabilis [3]; SD 16): 80%; Geometric mean percent reduction in live tick (Dermacentor variabilis) counts compared to untreated control rats (Dermacentor variabilis [3]; SD 23): 73%; Geometric mean percent reduction in live tick (Dermacentor variabilis) counts compared to untreated control rats (Dermacentor variabilis [3]; SD 30): 55%; Geometric mean percent reduction in live flea (Ctenocephalides felis) counts compared to untreated control rats (Ctenocephalides felis [4]; 25 mg/kg, SD 2): 100%; Geometric mean percent reduction in live flea (Ctenocephalides felis) counts compared to untreated control rats (Ctenocephalides felis [4]; 25 mg/kg, SD 9): 98%; Geometric mean percent reduction in live flea (Ctenocephalides felis) counts compared to untreated control rats (Ctenocephalides felis [4]; 25 mg/kg, SD 16): 91%; Geometric mean percent reduction in live flea (Ctenocephalides felis) counts compared to untreated control rats (Ctenocephalides felis [4]; 25 mg/kg, SD 23): 95%; Geometric mean percent reduction in live flea (Ctenocephalides felis) counts compared to untreated control rats (Ctenocephalides felis [4]; 25 mg/kg, SD 30): 93% |
| CN(C(=O)c1ccc(F)cc1)c1cccc(C(=O)Nc2c(I)cc(C(F)(C(F)(F)F)C(F)(F)F)cc2C(F)(F)F)c1F [Compound 24] | – | – | – | – | – | – | 95% | 95% | 90% | 95% | Geometric mean percent reduction in live flea (Ctenocephalides felis) counts compared to untreated control rats (Ctenocephalides felis [4]; 10 mg/kg, SD 2): 100%; Geometric mean percent reduction in live flea (Ctenocephalides felis) counts compared to untreated control rats (Ctenocephalides felis [4]; 10 mg/kg, SD 9): 99%; Geometric mean percent reduction in live flea (Ctenocephalides felis) counts compared to untreated control rats (Ctenocephalides felis [4]; 10 mg/kg, SD 16): 97%; Geometric mean percent reduction in live flea (Ctenocephalides felis) counts compared to untreated control rats (Ctenocephalides felis [4]; 10 mg/kg, SD 23): 96%; Geometric mean percent reduction in live flea (Ctenocephalides felis) counts compared to untreated control rats (Ctenocephalides felis [4]; 10 mg/kg, SD 30): 77%; pest or weed control at 0.2 µg/cm2, 0.2 µg/cm2 (Ixodes ricinus; dose 0.2 μg/cm^2, 48 h): 90%; pest or weed control at 1 µg/cm2, 1 µg/cm2 (Ixodes ricinus; dose 1 μg/cm^2, 48 h): 90% |
